Measured values from patent US12577238B2, “Compositions and methods for modulating inflammatory and degenerative disorder” (University of Southern California, priority 2018, dated 2026).
Entries after “also recorded” stand apart in the source; their conditions may differ.

Assays:
[1] = tested on: Col10a1-RFP reporter in limb bud mesenchymal cells; test: High throughput screen, Col10a1 reporter in BMP-4 stimulated limb mesenchymal cells; format: cell-based, mouse; conditions: ~170,000 compounds screened
Method: The gp130 co-receptor LIFR is expressed on a subset of superficial chondrocytes throughout human ontogeny. […] Given the known (and mostly detrimental roles) of IL-6 family cytokines on articular chondrocytes, a high throughput screen was performed to identify small molecules that could potentially modulate gp130 signaling. In adult mice, IL-6/gp130 signaling drives Col10a1 expression and hypertrophy, which has been strongly associated with OA progression; ˜170,000 compounds were thus screened for their ability to prevent increases in Col10-mCherry fluorescence in mouse limb mesenchymal cells stimulated with BMP-4, a strong driver of hypertrophy (FIG. 2).

[2] = tested on: adult pig articular chondrocytes; test: Western blot of signaling proteins (pSTAT3, MYC, MAPK, AKT, NF-κB) in pig articular chondrocytes; format: cell-based
Method: (A) Class 1 molecules (marked by red arrows) activate STAT3 and MYC signaling pathways wile Class 2 molecules (blue arrows) have no stimulatory effects on STAT3 and MYC signaling in chondrocytes as determined by western blot analysis. (B) Structures of the most prominent Class 1 and Class 2 molecules. […] All drugs were tested at 10 μM and assessed using Western Blot.
All drugs tested at 10 μM and assessed using Western Blot.
To begin to address the mechanism of action of RCGD 423, adult pig chondrocytes were incubated with the drug, IL-6 family cytokines or the pro-catabolic cytokines TNF-α and IL-1β and measured levels of various proteins downstream of these cytokines that are known to drive catabolic responses (FIG. 3).
Firstly, RCGD 423 was a hit from a library; this made the depth of the discovery surrounding the technology less comprehensive. Additionally, the physical properties of RCGD 423 (solubility, potency, functional groups) could be improved. Significant gains in these areas could potentially result in a first-in-class injectable for the treatment of post-traumatic OA. Moreover, the potential risks associated with promoting MYC stabilization and proliferation in gp130^+ cells as well as large increases in active STAT3 protein was of concern. […] These compounds were then screened in adult pig articular chondrocytes and cartilage explants, seeking compounds that could inhibit the catabolic effects of OSM but not drive increases in MYC and pSTAT3 protein levels. […] Together, these preliminary data identify CX-011 (B8) as a highly anti-inflammatory, anti-catabolic alternative to RCGD 423, with increased “drug-like” properties and reduced potential molecular liabilities.

[3] = target: T1, gp130 (Rattus norvegicus, UniProt P40190); test: Injection into rat knees, pSTAT3 and MYC levels; format: in vivo; conditions: injection into rat joints
T1 construct: from tissue; host or cells: rat knee joint in vivo (Sprague-Dawley wild-type in the CFA model)
T1 sequence (P40190 23-918): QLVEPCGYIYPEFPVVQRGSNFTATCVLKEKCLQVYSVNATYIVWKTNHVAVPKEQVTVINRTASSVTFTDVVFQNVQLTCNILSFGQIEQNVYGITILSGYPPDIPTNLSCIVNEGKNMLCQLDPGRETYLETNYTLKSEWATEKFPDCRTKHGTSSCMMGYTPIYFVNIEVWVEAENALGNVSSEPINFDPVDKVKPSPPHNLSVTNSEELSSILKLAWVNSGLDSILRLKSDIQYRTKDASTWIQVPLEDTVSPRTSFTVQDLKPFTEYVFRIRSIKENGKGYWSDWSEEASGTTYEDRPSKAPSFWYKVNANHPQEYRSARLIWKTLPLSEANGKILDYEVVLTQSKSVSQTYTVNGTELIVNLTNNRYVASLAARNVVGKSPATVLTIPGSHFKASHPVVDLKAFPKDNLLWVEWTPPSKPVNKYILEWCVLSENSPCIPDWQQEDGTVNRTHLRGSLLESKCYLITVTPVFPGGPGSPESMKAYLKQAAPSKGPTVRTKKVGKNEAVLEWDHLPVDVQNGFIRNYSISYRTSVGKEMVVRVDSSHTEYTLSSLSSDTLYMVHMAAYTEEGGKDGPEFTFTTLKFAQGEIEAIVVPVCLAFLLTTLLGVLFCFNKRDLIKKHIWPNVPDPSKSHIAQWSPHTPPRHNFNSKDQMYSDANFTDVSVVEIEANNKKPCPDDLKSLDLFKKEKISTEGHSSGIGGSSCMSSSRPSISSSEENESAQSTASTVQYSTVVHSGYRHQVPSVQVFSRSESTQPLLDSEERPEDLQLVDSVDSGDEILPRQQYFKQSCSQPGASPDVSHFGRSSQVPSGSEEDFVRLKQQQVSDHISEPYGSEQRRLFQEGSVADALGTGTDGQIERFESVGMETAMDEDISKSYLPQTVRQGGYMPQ
Method: Based on this, it was hypothesized that RCGD 423 acts through gp130 by promoting stable homodimers in the absence of ligand. To confirm that RCGD 423 acts through gp130, the gp130 null cell line Ba/F3 cells was used. Ba/F3 cells were transfected with either full-length gp130 or a mutant gp130 lacking domain 2 (ΔD2), which contains the predicted binding site for RCGD 423 (FIG. 7). […] To verify the specificity of RCGD 423 in vivo, the compound was injected into rat knees in the presence of the small molecule gp130 inhibitor SC144 or a blocking antibody specific for domain 2 of gp130. […] The ability of RCGD 423 to act via inducing formation of gp130 homodimers was then examined by expressing tagged versions of gp130 in 293T cells. In this system, only homodimeric complexes can contain both tagged versions of gp130 (FIG. 9).

## Brc1ccc(Nc2nc(-c3ccccc3)cs2)cc1 [RCGD 423]
[1]
  ability to prevent increases in Col10-mCherry fluorescence (Col10a1 reporter): primary hit
[2]; Western blot, analogs at 10 μM
  levels of active STAT3 (pSTAT3) and MYC proteins: increased levels of active STAT3 and MYC proteins; also recorded: shared increase in active STAT3 (pSTAT3) and MYC proteins
[2]; adult pig articular chondrocytes
  activation of the MAPK, AKT and NF-κB pathways: did not evidence the same result; also recorded: does not
[3]
  pSTAT3 and MYC levels in rat joints: increased pSTAT3 and MYC levels
